Laboratory results published in ChEMBL document CHEMBL2074451, “ATP- and glutathione-dependent transport of chemotherapeutic drugs by the multidrug resistance protein MRP1” (Br J Pharmacol, 1999).

What was measured:
[1] = molecular target: Multidrug resistance-associated protein 1 (Homo sapiens, UniProt P33527); assay: TP_TRANSPORTER: uptake in membrane vesicles from GLC4/ADR cells; assay type: functional, cell membranes, Membrane vesicle; settings: glc-4/adr
[2] = molecular target: ATP-dependent translocase ABCB1 (Homo sapiens, UniProt P08183); assay: TP_TRANSPORTER: uptake in A2780 and A2780AD cells; assay type: functional, cell-based
Chain of ATP-dependent translocase ABCB1 (P08183 whole entry): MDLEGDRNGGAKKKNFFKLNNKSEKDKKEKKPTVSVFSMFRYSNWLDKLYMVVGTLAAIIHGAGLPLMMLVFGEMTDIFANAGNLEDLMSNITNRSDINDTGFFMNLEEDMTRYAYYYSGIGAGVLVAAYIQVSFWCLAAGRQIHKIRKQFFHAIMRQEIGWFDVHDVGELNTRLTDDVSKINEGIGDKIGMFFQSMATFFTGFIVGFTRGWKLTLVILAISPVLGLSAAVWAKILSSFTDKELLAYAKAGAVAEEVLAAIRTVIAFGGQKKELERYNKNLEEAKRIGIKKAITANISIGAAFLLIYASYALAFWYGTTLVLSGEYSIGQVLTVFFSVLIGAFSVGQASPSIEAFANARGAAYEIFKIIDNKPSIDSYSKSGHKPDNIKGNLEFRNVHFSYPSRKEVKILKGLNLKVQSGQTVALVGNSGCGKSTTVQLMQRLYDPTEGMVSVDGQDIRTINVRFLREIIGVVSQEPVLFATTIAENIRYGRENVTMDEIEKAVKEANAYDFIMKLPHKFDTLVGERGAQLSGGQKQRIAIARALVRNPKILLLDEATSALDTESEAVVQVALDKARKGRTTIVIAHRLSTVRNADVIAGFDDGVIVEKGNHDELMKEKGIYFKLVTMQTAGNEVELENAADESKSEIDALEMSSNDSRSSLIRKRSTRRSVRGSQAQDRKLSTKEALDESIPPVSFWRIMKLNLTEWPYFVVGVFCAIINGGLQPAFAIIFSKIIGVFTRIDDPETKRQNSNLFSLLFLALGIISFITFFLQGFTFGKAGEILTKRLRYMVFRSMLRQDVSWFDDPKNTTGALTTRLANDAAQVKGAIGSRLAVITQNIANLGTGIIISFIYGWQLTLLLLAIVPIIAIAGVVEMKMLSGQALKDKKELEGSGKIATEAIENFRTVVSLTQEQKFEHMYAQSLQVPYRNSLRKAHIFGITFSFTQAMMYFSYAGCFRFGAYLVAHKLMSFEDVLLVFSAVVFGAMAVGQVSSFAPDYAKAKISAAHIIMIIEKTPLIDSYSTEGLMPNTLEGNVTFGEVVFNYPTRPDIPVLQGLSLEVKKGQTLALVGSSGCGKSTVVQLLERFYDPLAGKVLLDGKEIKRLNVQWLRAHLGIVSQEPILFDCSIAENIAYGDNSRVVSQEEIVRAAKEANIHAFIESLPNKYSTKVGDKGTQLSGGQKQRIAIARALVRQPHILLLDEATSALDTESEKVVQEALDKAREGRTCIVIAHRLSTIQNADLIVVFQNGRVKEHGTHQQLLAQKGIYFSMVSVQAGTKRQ

Chain of Multidrug resistance-associated protein 1 (P33527 whole entry): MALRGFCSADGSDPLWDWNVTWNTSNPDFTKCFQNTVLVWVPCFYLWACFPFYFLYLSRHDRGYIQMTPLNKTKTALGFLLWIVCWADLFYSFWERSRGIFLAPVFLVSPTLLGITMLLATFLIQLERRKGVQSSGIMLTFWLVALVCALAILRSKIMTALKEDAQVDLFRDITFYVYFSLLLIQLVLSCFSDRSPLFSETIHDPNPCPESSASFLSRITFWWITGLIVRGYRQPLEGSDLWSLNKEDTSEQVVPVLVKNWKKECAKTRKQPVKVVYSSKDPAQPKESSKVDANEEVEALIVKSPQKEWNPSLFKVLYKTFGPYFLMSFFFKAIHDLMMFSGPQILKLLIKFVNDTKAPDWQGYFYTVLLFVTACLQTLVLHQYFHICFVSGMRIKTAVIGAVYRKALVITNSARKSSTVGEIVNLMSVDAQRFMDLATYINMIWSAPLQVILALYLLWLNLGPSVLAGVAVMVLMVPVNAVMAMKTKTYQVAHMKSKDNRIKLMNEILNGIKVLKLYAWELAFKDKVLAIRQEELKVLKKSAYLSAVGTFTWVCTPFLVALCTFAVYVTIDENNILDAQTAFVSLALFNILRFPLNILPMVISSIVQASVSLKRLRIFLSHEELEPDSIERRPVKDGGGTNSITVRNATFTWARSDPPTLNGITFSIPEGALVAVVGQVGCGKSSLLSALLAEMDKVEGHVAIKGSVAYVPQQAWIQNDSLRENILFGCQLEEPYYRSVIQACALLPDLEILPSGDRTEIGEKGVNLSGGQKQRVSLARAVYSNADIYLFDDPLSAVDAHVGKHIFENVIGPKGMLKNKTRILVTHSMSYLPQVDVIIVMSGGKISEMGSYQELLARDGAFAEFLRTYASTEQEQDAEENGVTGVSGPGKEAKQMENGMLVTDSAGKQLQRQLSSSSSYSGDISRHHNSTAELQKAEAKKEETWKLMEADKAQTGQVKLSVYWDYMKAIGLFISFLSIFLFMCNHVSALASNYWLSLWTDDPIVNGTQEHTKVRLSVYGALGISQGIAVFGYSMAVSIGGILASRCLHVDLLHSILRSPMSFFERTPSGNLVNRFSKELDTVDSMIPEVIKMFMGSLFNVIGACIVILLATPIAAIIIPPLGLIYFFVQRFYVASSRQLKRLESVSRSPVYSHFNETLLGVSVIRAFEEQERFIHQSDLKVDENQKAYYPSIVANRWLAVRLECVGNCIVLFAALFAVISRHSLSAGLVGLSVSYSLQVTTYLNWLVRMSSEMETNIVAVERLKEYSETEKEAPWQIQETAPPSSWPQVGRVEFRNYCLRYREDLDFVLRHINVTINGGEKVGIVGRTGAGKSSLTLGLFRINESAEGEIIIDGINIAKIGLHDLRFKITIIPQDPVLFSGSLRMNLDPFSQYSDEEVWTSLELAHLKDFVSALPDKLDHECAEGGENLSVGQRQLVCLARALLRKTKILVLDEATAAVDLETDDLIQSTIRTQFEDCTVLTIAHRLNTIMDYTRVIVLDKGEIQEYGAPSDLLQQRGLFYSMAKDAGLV

Row | SMILES | Activity [1] | Activity [2]
1 | CC[C@]1(O)C[C@H]2CN(CCc3c([nH]c4ccccc34)[C@@](C(=O)OC)(c3cc4c(cc3OC)N(C=O)[C@H]3[C@@](O)(C(=O)OC)[C@H](OC(C)=O)[C@]5(CC)C=CCN6CC[C@]43[C@@H]65)C2)C1 [VINCRISTINE] | substrate [+] | –
2 | CCC1C[N+]2(CCCC3(C)N=N3)C3CC45c6ccccc6N(C)C4C2CC1C3C5O (configuration not stated) | – | substrate [+]
